Among the test systems are KM12 colon; T-47D breast; BT-549 breast; OVCAR-3 ovarian; U251 CNS; DU-145 prostate; MDA-MB-231 breast; SK-OV-3 ovarian; CAKI-1 renal; SNB-75 CNS.
Assay in all cases: growth of human tumour cells (NCI), 48 h

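Step 1: Grow cells in 96-well plates. Step 2: Expose to compound for 48 hours at 5 concentrations. Step 3: Interpolate endpoints linearly; if unreached, use highest concentration. GI50 is the concentration that inhibits growth by half. At the TGI there is no net growth.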

Turning to `COc1cc2ncc3c(nc4sccn43)c2cc1OC`, the GI50 was 8.38 µM in the test with KM12 colon; 29.2 µM in the test on T-47D breast; 37.1 µM in the test on BT-549 breast; 13.1 µM with OVCAR-3 ovarian; 16.5 µM with U251 CNS; 28 µM with DU-145 prostate. The GI50 with MDA-MB-231 breast was 24.2 µM; in the test on SK-OV-3 ovarian, 30.1 µM; with CAKI-1 renal, 2.38 µM. Moreover, the TGI is greater than 100 µM in the test on KM12 colon; greater than 100 µM in the test with T-47D breast; greater than 100 µM in the test with BT-549 breast; 42 µM in the test on OVCAR-3 ovarian; 39.3 µM in the test with U251 CNS; greater than 100 µM in the test on DU-145 prostate. Also, the TGI in the test with MDA-MB-231 breast was 78.3 µM; in the test on SK-OV-3 ovarian it was greater than 100 µM; in the test on CAKI-1 renal it was 21.2 µM.

For `CC1c2ccccc2CCN1c1ccc(CO)c(Cl)c1` (stereo not drawn), the GI50 in the test with KM12 colon is 22.6 µM; in the test with T-47D breast, 0.053 µM; in the test on SNB-75 CNS it was 20 µM; in the test on BT-549 breast it was 17.2 µM; in the test with OVCAR-3 ovarian it was 0.171 µM; with U251 CNS it was 0.318 µM. Further, the GI50 in the test with DU-145 prostate was 11.6 µM; in the test on MDA-MB-231 breast, 15.5 µM; in the test with SK-OV-3 ovarian it was 1.61 µM; in the test on CAKI-1 renal, 3.46 µM. The TGI with KM12 colon was greater than 72.5 µM; with T-47D breast, 0.311 µM; in the test with SNB-75 CNS, 75 µM; with BT-549 breast it was 37.7 µM; with OVCAR-3 ovarian, 3.36 µM; with U251 CNS, greater than 46.1 µM. The TGI was greater than 53 µM in the test with DU-145 prostate, 58.4 µM with MDA-MB-231 breast, 10.7 µM in the test on SK-OV-3 ovarian and 50.3 µM in the test with CAKI-1 renal.

Regarding `Fc1cccc(F)c1C(Nc1nncs1)Nc1nncs1`, the TGI in the test with KM12 colon, with T-47D breast, with SNB-75 CNS, in the test with BT-549 breast, with OVCAR-3 ovarian and with U251 CNS was greater than 100 µM each time. Further, the TGI in the test on DU-145 prostate, in the test on MDA-MB-231 breast, in the test with SK-OV-3 ovarian and in the test with CAKI-1 renal was greater than 100 µM in each case.

Regarding `N/C(=N\OC(=O)c1ccccc1)C(Cc1ccccc1)C(=O)NOC(=O)c1ccccc1` (stereo not drawn), the GI50 in the test on KM12 colon was 2.19 µM; with T-47D breast, 3.18 µM; in the test on SNB-75 CNS, 1.62 µM; with BT-549 breast, 4.26 µM; in the test on OVCAR-3 ovarian it was 1.8 µM; in the test with U251 CNS, 1.36 µM. Further, the GI50 with DU-145 prostate was 1.58 µM; in the test on MDA-MB-231 breast it was 4.6 µM; with SK-OV-3 ovarian, 5.48 µM; in the test with CAKI-1 renal, 1.28 µM. In addition, the TGI in the test on KM12 colon was found to be 5.28 µM; in the test on T-47D breast, 15.8 µM; in the test on SNB-75 CNS it was 3.41 µM; with BT-549 breast it was 16.5 µM; in the test on OVCAR-3 ovarian it was 4.1 µM; with U251 CNS it was 2.87 µM. Further, the TGI with DU-145 prostate was found to be 3.07 µM; with MDA-MB-231 breast, 18.1 µM; with SK-OV-3 ovarian it was 18.2 µM; with CAKI-1 renal, 2.97 µM.

For `COc1cc(/C=C/c2ccc3c(Br)cc(Br)c(O)c3n2)ccc1O`, the GI50 was 1.41 µM with KM12 colon; 2.13 µM in the test on T-47D breast; 2.5 µM in the test with SNB-75 CNS; 2.61 µM with BT-549 breast; 1.66 µM in the test with OVCAR-3 ovarian; 0.636 µM with U251 CNS. For the same compound, the GI50 with DU-145 prostate was 2.41 µM; in the test on MDA-MB-231 breast it was 7.39 µM; in the test with SK-OV-3 ovarian, 6.62 µM; in the test with CAKI-1 renal it was 0.553 µM. Besides, the TGI with KM12 colon was 13.2 µM; in the test with T-47D breast it was 14.7 µM; in the test on SNB-75 CNS it was 10.1 µM; in the test with BT-549 breast, 13.6 µM; with OVCAR-3 ovarian, 9.12 µM; in the test with U251 CNS, 10.9 µM. Also, the TGI was 17.6 µM in the test with DU-145 prostate, 22 µM in the test with MDA-MB-231 breast, 31.8 µM in the test with SK-OV-3 ovarian and 5.42 µM in the test on CAKI-1 renal.

With `Fc1ccc(/C=N/n2c(-c3ccc(F)c(Cl)c3)n[nH]c2=S)cc1`, the GI50 with KM12 colon is 43.6 µM; with T-47D breast it was 20.7 µM; in the test on SNB-75 CNS, 15.3 µM; in the test with BT-549 breast, 78.5 µM; in the test on OVCAR-3 ovarian, 18.3 µM; in the test with DU-145 prostate, 41.5 µM. In addition, the GI50 was 20.2 µM in the test with MDA-MB-231 breast, 22 µM in the test on SK-OV-3 ovarian and 47.8 µM in the test on CAKI-1 renal. For the same compound, the TGI is greater than 100 µM with KM12 colon; 40.1 µM with T-47D breast; 30.1 µM with SNB-75 CNS; greater than 100 µM in the test with BT-549 breast; 37.3 µM in the test on OVCAR-3 ovarian; greater than 100 µM in the test with DU-145 prostate. For the same compound, the results for the TGI in the test with MDA-MB-231 breast, with SK-OV-3 ovarian and in the test with CAKI-1 renal were 38.9 µM, 38.5 µM and greater than 100 µM, respectively.

Take `COc1cc(-c2nn(-c3cccc(NC(=O)CCN4CCN(Cc5ccccc5)CC4)c3)cc2-c2ccncc2)ccc1Cl`: the GI50 is 0.583 µM in the test with KM12 colon; 2.76 µM with T-47D breast; 1.55 µM in the test with SNB-75 CNS; 2.27 µM with BT-549 breast; 0.395 µM in the test with OVCAR-3 ovarian; 0.839 µM in the test on U251 CNS. Further, the GI50 in the test with DU-145 prostate is 1.56 µM; with MDA-MB-231 breast it was 1.64 µM; in the test on SK-OV-3 ovarian, 4.86 µM. Further, the TGI was 3.86 µM in the test on KM12 colon; 27.6 µM in the test with T-47D breast; 8.73 µM in the test with SNB-75 CNS; 8.59 µM in the test on BT-549 breast; 1.77 µM in the test on OVCAR-3 ovarian; 2.76 µM in the test with U251 CNS. The values for the TGI in the test on DU-145 prostate, with MDA-MB-231 breast and with SK-OV-3 ovarian were 10.9 µM, 3.71 µM and 20.6 µM, respectively.

In the case of `C=CCC1(C)CCCN(Cc2ccccc2)C1=O` (stereo not drawn), the TGI in the test on KM12 colon, in the test with T-47D breast, in the test with BT-549 breast, in the test with OVCAR-3 ovarian, in the test on U251 CNS and in the test on DU-145 prostate was greater than 10 µM each time. Moreover, the TGI in the test on MDA-MB-231 breast, in the test on SK-OV-3 ovarian and with CAKI-1 renal was greater than 10 µM throughout.

The values above are taken from PubChem BioAssay (NCI).
